The text below walks through data of patent publication US6649784B2, “Aspartyl dipeptide ester derivatives and sweeteners” (Ajinomoto Co., Inc., priority 1999, dated 2003).

For experiment [1] the following is noted: times that of sucrose/sugar; reported in WO 94/11391 (b9: compared with 2, 5 and 10% sucrose solutions); cited from earlier work.
Experiment [2] can be described thus: organoleptic (sensory) test of sweetening potency. Conditions: for Sweetening potency: value compared with a 4% sucrose aqueous solution. The source says: For example, a sweetening potency of N-[N-[3-(3,4-dihydroxyphenyl)-3-methylbutyl]-L-α-aspartyl]-L-phenylalanine 1-methyl ester was approximately 50,000 times (relative to sugar), and a sweetening potency of N-[N-[3-(3,4,5-trihydroxyphenyl)propyl]-L-α-aspartyl]-L-phenylalanine 1-methyl ester was approximately 25,000 times (relative to sugar).
The structures and the results of the sensory test on some aspartyl dipeptide ester derivatives (represented by the following general formula (1)) formed are shown in Table 1.

With `COC(=O)[C@H](Cc1ccccc1)NC(=O)[C@H](CC(=O)O)NCCC(C)c1ccccc1` (mixture of isomers) [N-[N-[(RS)-3-phenylbutyl]-L-α-aspartyl]-L-phenylalanine 1-methyl ester], the “sweetening potency (degree of sweetness)” value in experiment [1] is given as 1,200 times. For the molecule `COC(=O)[C@H](Cc1ccccc1)NC(=O)[C@H](CC(=O)O)NCCCc1ccc(O)cc1O` [Compound 1, N-[N-[3-(2,4-dihydroxyphenyl)propyl]-L-α-aspartyl]-L-phenylalanine 1-methyl Ester], in experiment [2], the “Sweetening potency (relative to sugar)” value is recorded as 10,000 times and the Sweetening potency amounted to 10000. Regarding `COC(=O)[C@H](Cc1ccccc1)NC(=O)[C@H](CC(=O)O)NCCCc1ccc(O)c(O)c1` [Compound 2, N-[N-[3-(3,4-dihydroxyphenyl)propyl]-L-α-aspartyl]-L-phenylalanine 1-methyl Ester], in experiment [2], the “Sweetening potency (relative to sugar)” value was 15,000 times and the Sweetening potency was found to be 15000. Consider `COC(=O)[C@H](Cc1ccccc1)NC(=O)[C@H](CC(=O)O)NCCCc1ccc(O)c(O)c1O` [Compound 3, N-[N-[3-(2,3,4-trihydroxyphenyl)propyl]-L-α-aspartyl]-L-phenylalanine 1-methyl Ester], for which, in experiment [2], the “Sweetening potency (relative to sugar)” value is 10,000 times and the Sweetening potency was 10000. In the case of `COC(=O)[C@H](Cc1ccccc1)NC(=O)[C@H](CC(=O)O)NCCCc1cc(O)c(O)c(O)c1` [Compound 4, N-[N-[3-(3,4,5-trihydroxyphenyl)propyl]-L-α-aspartyl]-L-phenylalanine 1-methyl Ester], the “Sweetening potency (relative to sugar)” value in experiment [2] (listed as Example 4) is reported as 25,000 times; in experiment [2] (listed as N-[N-[3-(3,4,5-trihydroxyphenyl)propyl]-L-α-aspartyl]-L-phenylalanine 1-methyl e), “approximately 25,000 times”. The Sweetening potency in experiment [2] was 25000. `COC(=O)[C@H](Cc1ccccc1)NC(=O)[C@H](CC(=O)O)NCCC(C)(C)c1ccc(O)c(O)c1` [Compound 5, N-[N-[3-(3,4-dihydroxyphenyl)-3-methylbutyl]-L-α-aspartyl]-L-phenylalanine 1-methyl Ester]: the “Sweetening potency (relative to sugar)” value in experiment [2] (listed as Example 5) was 50,000 times; in experiment [2] (listed as N-[N-[3-(3,4-dihydroxyphenyl)-3-methylbutyl]-L-α-aspartyl]-L-phenylalanine 1-met), “approximately 50,000 times”. In experiment [2], this molecule showed a Sweetening potency of 50000. Consider `COC(=O)[C@H](Cc1ccccc1)NC(=O)[C@H](CC(=O)O)NCCC(C)(C)C` [N-[N-(3,3-dimethylbutyl)-L-α-aspartyl]-L-phenylalanine 1-methyl ester], for which the “sweetening potency (degree of sweetness)” value in experiment [1] is given as 10,000 times. Consider `COC(=O)[C@H](Cc1ccccc1)NC(=O)[C@H](CC(=O)O)NCCCc1ccccc1` [N-[N-(3-phenylpropyl)-L-α-aspartyl]-L-phenylalanine 1-methyl ester], for which the “sweetening potency (degree of sweetness)” value in experiment [1] was 1,500 times. As to `COC(=O)[C@H](Cc1ccccc1)NC(=O)[C@H](CC(=O)O)NCCCc1ccc(O)c(OC)c1` [N-[N-[3-(3-methoxy-4-hydroxyphenyl)propyl]-L-α-aspartyl]-L-phenylalanine 1-methyl ester], the “sweetening potency (degree of sweetness)” value in experiment [1] is 2,500 times.
